This note sets out measurements from ChEMBL document CHEMBL1153791, “Acylphloroglucinol, biyouyanagiol, biyouyanagin B, and related spiro-lactones from Hypericum chinense” (J Nat Prod, 2009).

In brackets after ≈: the same amount, converted by molar mass.

The first experiment deals with KB. The experiment can be described thus: Cytotoxicity against human KB cells after 48 hrs by MTT assay. In kind it is functional, cell-based.
Settings: not given
Regarding `C=C[C@@]1(C)COC(=O)C1C(=O)/C=C(\O)c1ccccc1` (stereo not given in full) [HYPERLACTONE D], the midpoint of inhibition, the IC50, lay at 61 µg/mL (≈ 224 µM).

In the case of `OC[C@H]1[C@@H](Cc2ccc3c(c2)OCO3)CO[C@@H]1c1ccc2c(c1)OCO2` [DIHYDROSESAMIN], the IC50 was over 100 µg/mL.

`COc1cc(/C=C/C(=O)OC[C@H](Cc2ccc(O)c(OC)c2)[C@H](COC(=O)/C=C/c2ccc(O)c(OC)c2)Cc2ccc(O)c(OC)c2)ccc1O` registered a half-maximal inhibitory concentration (IC50) of 14.1 µg/mL (≈ 19.7 µM).

Compound `C=C[C@@]1(C)COC(=O)[C@]12O[C@]1(c3ccccc3)[C@H](C2=O)[C@H]2[C@H]([C@H](C)CCC=C(C)C)CC=C(C)[C@H]21` [BIYOUYANAGIN A] showed an IC50 of 38.8 µg/mL (≈ 81.7 µM).

In turn, `C=C[C@@]1(C)COC(=O)C1(O)C(=O)/C=C(\O)c1ccccc1` (stereo not given in full) gave an IC50 of over 100 µg/mL.

The subject of another experiment is COLO 205. Kind of experiment: Cytotoxicity against human COLO205 cells after 48 hrs by MTT assay. The settings on record: COLO 205, 48 h. It counts as functional, cell-based. A general note: Formazan colour is commonly taken as a measure of viable cells.
Take `C=C[C@@]1(C)COC(=O)C1C(=O)/C=C(\O)c1ccccc1` (stereo not given in full) [HYPERLACTONE D]: the IC50 was determined as 37.5 µg/mL (≈ 138 µM).

The compound `OC[C@H]1[C@@H](Cc2ccc3c(c2)OCO3)CO[C@@H]1c1ccc2c(c1)OCO2` [DIHYDROSESAMIN] yielded an IC50 of 79 µg/mL (≈ 222 µM).

Take `COc1cc(/C=C/C(=O)OC[C@H](Cc2ccc(O)c(OC)c2)[C@H](COC(=O)/C=C/c2ccc(O)c(OC)c2)Cc2ccc(O)c(OC)c2)ccc1O`: the IC50 was found to be 5.2 µg/mL (≈ 7.28 µM).

With `C=C[C@@]1(C)COC(=O)[C@]12O[C@]1(c3ccccc3)[C@H](C2=O)[C@H]2[C@H]([C@H](C)CCC=C(C)C)CC=C(C)[C@H]21` [BIYOUYANAGIN A], the IC50 worked out at 26.9 µg/mL (≈ 56.7 µM).

Compound `C=C[C@@]1(C)COC(=O)C1(O)C(=O)/C=C(\O)c1ccccc1` (stereo not given in full) registered an IC50 of 79 µg/mL (≈ 274 µM).

The test system of a further experiment is K562. The experiment can be described thus: Cytotoxicity against human doxorubicin-resistant K562 cells after 48 hrs by MTT assay. The settings on record: K562, 48 h. It counts as functional, cell-based.
As to `C=C[C@@]1(C)COC(=O)C1C(=O)/C=C(\O)c1ccccc1` (stereo not given in full) [HYPERLACTONE D], the IC50 was 20 µg/mL (≈ 73.4 µM).

`OC[C@H]1[C@@H](Cc2ccc3c(c2)OCO3)CO[C@@H]1c1ccc2c(c1)OCO2` [DIHYDROSESAMIN]: it took 33.7 µg/mL (≈ 94.6 µM) to reach half-maximal inhibition (IC50).

In turn, `COc1cc(/C=C/C(=O)OC[C@H](Cc2ccc(O)c(OC)c2)[C@H](COC(=O)/C=C/c2ccc(O)c(OC)c2)Cc2ccc(O)c(OC)c2)ccc1O` had an IC50 of 19.9 µg/mL (≈ 27.8 µM).

Compound `C=C[C@@]1(C)COC(=O)[C@]12O[C@]1(c3ccccc3)[C@H](C2=O)[C@H]2[C@H]([C@H](C)CCC=C(C)C)CC=C(C)[C@H]21` [BIYOUYANAGIN A] yielded an IC50 of 16.6 µg/mL (≈ 35 µM).

In turn, `C=C[C@@]1(C)COC(=O)C1(O)C(=O)/C=C(\O)c1ccccc1` (stereo not given in full) yielded an IC50 of 33.7 µg/mL (≈ 117 µM).

In another experiment the test system is K562. The experiment can be described thus: Cytotoxicity against human K562 cells after 48 hrs by MTT assay. It counts as functional, cell-based. To be noted: K562, 48 h.
As for `C=C[C@@]1(C)COC(=O)C1C(=O)/C=C(\O)c1ccccc1` (stereo not given in full) [HYPERLACTONE D], the IC50 worked out at 47.8 µg/mL (≈ 176 µM).

Regarding `OC[C@H]1[C@@H](Cc2ccc3c(c2)OCO3)CO[C@@H]1c1ccc2c(c1)OCO2` [DIHYDROSESAMIN], the IC50 was over 100 µg/mL.

`COc1cc(/C=C/C(=O)OC[C@H](Cc2ccc(O)c(OC)c2)[C@H](COC(=O)/C=C/c2ccc(O)c(OC)c2)Cc2ccc(O)c(OC)c2)ccc1O` came in with an IC50 of 17.3 µg/mL (≈ 24.2 µM).

Consider `C=C[C@@]1(C)COC(=O)[C@]12O[C@]1(c3ccccc3)[C@H](C2=O)[C@H]2[C@H]([C@H](C)CCC=C(C)C)CC=C(C)[C@H]21` [BIYOUYANAGIN A], for which it took 31.1 µg/mL (≈ 65.5 µM) to reach half-maximal inhibition (IC50).

As for `C=C[C@@]1(C)COC(=O)C1(O)C(=O)/C=C(\O)c1ccccc1` (stereo not given in full), the IC50 is over 100 µg/mL.

Test system in another experiment: not listed separately
The experiment can be described thus: Cytotoxicity against human multidrug resistant KB-C2 cells after 48 hrs by MTT assay in the presence of colchicine. The settings on record: KB-C2, 48 h. In kind it is functional, cell-based.
Regarding `C=C[C@@]1(C)COC(=O)C1C(=O)/C=C(\O)c1ccccc1` (stereo not given in full) [HYPERLACTONE D], the IC50 was 24.6 µg/mL.

With `OC[C@H]1[C@@H](Cc2ccc3c(c2)OCO3)CO[C@@H]1c1ccc2c(c1)OCO2` [DIHYDROSESAMIN], the IC50 is 53.1 µg/mL.

In the case of `COc1cc(/C=C/C(=O)OC[C@H](Cc2ccc(O)c(OC)c2)[C@H](COC(=O)/C=C/c2ccc(O)c(OC)c2)Cc2ccc(O)c(OC)c2)ccc1O`, the IC50 was determined as 4.5 µg/mL.

Consider `C=C[C@@]1(C)COC(=O)[C@]12O[C@]1(c3ccccc3)[C@H](C2=O)[C@H]2[C@H]([C@H](C)CCC=C(C)C)CC=C(C)[C@H]21` [BIYOUYANAGIN A], for which the IC50 was determined as 16.8 µg/mL.

With `C=C[C@@]1(C)COC(=O)C1(O)C(=O)/C=C(\O)c1ccccc1` (stereo not given in full), the IC50 is 53.1 µg/mL.

A further experiment concerns MCF7. The experiment can be described thus: Cytotoxicity against human MCF7 cells after 48 hrs by MTT assay. It counts as functional, cell-based. The settings on record: MCF7, 48 h.
For the compound `C=C[C@@]1(C)COC(=O)C1C(=O)/C=C(\O)c1ccccc1` (stereo not given in full) [HYPERLACTONE D], the IC50 was found to be 52.9 µg/mL (≈ 194 µM).

For `OC[C@H]1[C@@H](Cc2ccc3c(c2)OCO3)CO[C@@H]1c1ccc2c(c1)OCO2` [DIHYDROSESAMIN], the IC50 is 62.1 µg/mL (≈ 174 µM).

For `COc1cc(/C=C/C(=O)OC[C@H](Cc2ccc(O)c(OC)c2)[C@H](COC(=O)/C=C/c2ccc(O)c(OC)c2)Cc2ccc(O)c(OC)c2)ccc1O`, the IC50 amounted to 5.9 µg/mL (≈ 8.25 µM).

For the compound `C=C[C@@]1(C)COC(=O)[C@]12O[C@]1(c3ccccc3)[C@H](C2=O)[C@H]2[C@H]([C@H](C)CCC=C(C)C)CC=C(C)[C@H]21` [BIYOUYANAGIN A], the IC50 was 27.1 µg/mL (≈ 57.1 µM).

Turning to `C=C[C@@]1(C)COC(=O)C1(O)C(=O)/C=C(\O)c1ccccc1` (stereo not given in full), it took 62.1 µg/mL (≈ 215 µM) to reach half-maximal inhibition (IC50).

Test system in a further experiment: not listed separately
Kind of experiment: Cytotoxicity against human multidrug resistant KB-C2 cells after 48 hrs by MTT assay. In kind it is functional, cell-based. The settings on record: KB-C2, 48 h.
As to `C=C[C@@]1(C)COC(=O)C1C(=O)/C=C(\O)c1ccccc1` (stereo not given in full) [HYPERLACTONE D], the IC50 was 22.3 µg/mL (≈ 81.9 µM).

As for `OC[C@H]1[C@@H](Cc2ccc3c(c2)OCO3)CO[C@@H]1c1ccc2c(c1)OCO2` [DIHYDROSESAMIN], the IC50 was over 100 µg/mL.

`COc1cc(/C=C/C(=O)OC[C@H](Cc2ccc(O)c(OC)c2)[C@H](COC(=O)/C=C/c2ccc(O)c(OC)c2)Cc2ccc(O)c(OC)c2)ccc1O` gave an IC50 of 9.4 µg/mL (≈ 13.2 µM).

`C=C[C@@]1(C)COC(=O)[C@]12O[C@]1(c3ccccc3)[C@H](C2=O)[C@H]2[C@H]([C@H](C)CCC=C(C)C)CC=C(C)[C@H]21` [BIYOUYANAGIN A] displayed an IC50 of 36.2 µg/mL (≈ 76.3 µM).

For the compound `C=C[C@@]1(C)COC(=O)C1(O)C(=O)/C=C(\O)c1ccccc1` (stereo not given in full), the IC50 is over 100 µg/mL.

As usually defined, the IC50 is the midpoint of a concentration-inhibition curve.
